Columns and labels:
[1] = molecular target: T1, Integrin alpha-4/beta-7 (Homo sapiens, UniProt P13612+P26010); experiment: Inhibition of [125I]-VCAM-Ig binding to human integrin alpha4-beta7 receptor in RPMI-8866 cells; type: cell-based
T1 sequence (P13612 whole entry): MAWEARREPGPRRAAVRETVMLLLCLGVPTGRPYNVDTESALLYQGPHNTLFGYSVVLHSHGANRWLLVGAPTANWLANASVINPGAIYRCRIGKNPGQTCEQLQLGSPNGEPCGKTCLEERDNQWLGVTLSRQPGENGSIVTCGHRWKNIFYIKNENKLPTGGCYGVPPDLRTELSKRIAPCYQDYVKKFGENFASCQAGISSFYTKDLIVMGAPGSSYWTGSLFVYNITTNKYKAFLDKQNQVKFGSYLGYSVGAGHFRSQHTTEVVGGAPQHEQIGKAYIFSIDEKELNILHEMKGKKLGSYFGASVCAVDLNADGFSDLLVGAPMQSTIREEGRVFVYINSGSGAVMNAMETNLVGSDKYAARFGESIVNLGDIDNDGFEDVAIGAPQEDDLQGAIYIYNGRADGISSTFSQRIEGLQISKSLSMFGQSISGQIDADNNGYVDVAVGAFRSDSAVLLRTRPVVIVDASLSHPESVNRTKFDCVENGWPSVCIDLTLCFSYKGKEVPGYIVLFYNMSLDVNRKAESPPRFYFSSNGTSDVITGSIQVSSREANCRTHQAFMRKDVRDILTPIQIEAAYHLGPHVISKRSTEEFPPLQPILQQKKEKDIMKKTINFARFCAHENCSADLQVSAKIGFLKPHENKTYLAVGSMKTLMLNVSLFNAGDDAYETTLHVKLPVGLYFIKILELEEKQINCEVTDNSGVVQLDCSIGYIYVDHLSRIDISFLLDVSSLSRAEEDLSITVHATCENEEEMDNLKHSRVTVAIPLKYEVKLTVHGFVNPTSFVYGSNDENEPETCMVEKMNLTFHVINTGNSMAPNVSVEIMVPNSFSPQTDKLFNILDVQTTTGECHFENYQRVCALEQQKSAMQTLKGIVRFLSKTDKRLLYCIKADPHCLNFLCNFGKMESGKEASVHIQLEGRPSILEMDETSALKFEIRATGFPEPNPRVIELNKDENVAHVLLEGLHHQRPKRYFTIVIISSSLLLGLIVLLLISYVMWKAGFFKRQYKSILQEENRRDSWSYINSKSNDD
T1 sequence (P26010 whole entry): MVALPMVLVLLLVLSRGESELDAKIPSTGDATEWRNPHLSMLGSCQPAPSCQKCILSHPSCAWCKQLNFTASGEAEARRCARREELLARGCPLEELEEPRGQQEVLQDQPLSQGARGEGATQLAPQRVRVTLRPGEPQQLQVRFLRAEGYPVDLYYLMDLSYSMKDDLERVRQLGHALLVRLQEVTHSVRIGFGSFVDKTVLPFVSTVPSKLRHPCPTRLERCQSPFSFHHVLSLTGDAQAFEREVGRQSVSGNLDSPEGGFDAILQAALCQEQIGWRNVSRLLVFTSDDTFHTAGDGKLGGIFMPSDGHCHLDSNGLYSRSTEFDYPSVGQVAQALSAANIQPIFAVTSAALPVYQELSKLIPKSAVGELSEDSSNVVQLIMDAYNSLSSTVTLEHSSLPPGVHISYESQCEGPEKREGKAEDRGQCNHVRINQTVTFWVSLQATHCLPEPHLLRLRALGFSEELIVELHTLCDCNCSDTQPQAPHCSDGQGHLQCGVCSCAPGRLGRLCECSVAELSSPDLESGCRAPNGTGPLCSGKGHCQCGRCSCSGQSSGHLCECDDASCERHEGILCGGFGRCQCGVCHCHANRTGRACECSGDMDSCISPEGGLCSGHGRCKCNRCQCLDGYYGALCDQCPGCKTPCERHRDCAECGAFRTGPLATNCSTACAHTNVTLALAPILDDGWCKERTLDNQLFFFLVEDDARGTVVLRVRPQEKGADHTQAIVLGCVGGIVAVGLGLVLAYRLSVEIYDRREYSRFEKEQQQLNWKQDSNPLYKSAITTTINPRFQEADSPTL

[2] = molecular target: Integrin alpha-4/beta-1 (Homo sapiens, UniProt P05556+P13612); experiment: Binding affinity towards VLA-4 (alpha4 beta-1) receptor in human Jurkat cells using [125I]VCAM-Ig as radioligand; type: cell-based
[3] = Plasma clearance was evaluated at 1 mg/kg of iv administration in Sprague-Dawley rats; type: ADME, organism-based; set-up: dose 1 mg/kg, route intravenous; settings: rat, read-out: Clp
[4] = Half life time was evaluated at 1 mg/kg of iv administration in Sprague-Dawley rats; type: ADME, organism-based; set-up: dose 1 mg/kg, route intravenous; settings: rat, in vivo
[5] = molecular target: T1, Integrin alpha-4/beta-7; experiment: Binding affinity towards […] receptor in human RPMI-8866 B-cell line using [125I]MAdCAM-Ig as radioligand
[6] = Oral bioavailability in rat (Sprague-Dawley) (dose 2 mg/kg); type: ADME, organism-based; settings: in vivo
[7] = molecular target: T2, Integrin alpha-4/beta-7 (Homo sapiens) (UniProt P13612+P26010); experiment: Percent inhibition of [125I]VCAM-Ig binding to human integrin alpha4-beta7 receptor of RPMI-8866 cells at 100 nM; type: cell-based
[8] = molecular target: T2, Integrin alpha-4/beta-7 (Homo sapiens); experiment: Percent inhibition of [125I]MAdCAM-Ig binding to human integrin alpha4-beta7 receptor of RPMI-8866 cells at 100 nM; type: cell-based

Sequence of Integrin alpha-4/beta-1 (P05556 whole entry, one chain of several): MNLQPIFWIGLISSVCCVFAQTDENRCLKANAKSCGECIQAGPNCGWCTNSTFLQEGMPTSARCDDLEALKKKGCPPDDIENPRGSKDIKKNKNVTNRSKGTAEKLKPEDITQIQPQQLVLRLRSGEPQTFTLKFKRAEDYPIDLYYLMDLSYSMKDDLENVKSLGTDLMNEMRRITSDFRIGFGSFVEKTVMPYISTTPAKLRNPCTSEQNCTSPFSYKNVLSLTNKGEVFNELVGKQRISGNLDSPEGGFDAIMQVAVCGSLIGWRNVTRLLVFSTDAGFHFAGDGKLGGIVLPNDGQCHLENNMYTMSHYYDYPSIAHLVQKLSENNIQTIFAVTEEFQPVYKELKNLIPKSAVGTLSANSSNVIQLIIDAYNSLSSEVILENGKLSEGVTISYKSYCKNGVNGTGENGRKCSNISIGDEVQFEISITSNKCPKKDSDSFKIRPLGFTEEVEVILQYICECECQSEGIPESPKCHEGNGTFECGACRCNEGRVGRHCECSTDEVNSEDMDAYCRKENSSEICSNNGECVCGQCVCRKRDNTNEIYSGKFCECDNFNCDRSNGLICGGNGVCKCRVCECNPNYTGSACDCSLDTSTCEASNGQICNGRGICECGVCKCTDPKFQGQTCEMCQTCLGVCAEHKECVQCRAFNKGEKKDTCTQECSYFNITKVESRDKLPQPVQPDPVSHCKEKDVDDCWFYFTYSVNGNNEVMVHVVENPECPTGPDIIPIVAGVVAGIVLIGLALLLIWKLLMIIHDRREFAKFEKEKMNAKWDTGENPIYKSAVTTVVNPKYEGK

Structure (SMILES)	IC50 [1] [nM]	IC50 [2] [nM]	other results
COc1ccccc1-c1ccc(C[C@H](NC(=O)C2(S(=O)(=O)C(C)(C)C)CCCC2)C(=O)O)cc1	19	0.47	
COc1ccccc1-c1ccc(C[C@H](NC(=O)C2(S(=O)(=O)C3CCCCC3)CCCC2)C(=O)O)cc1	52	1.1	
COc1cccc(OC)c1-c1ccc(C[C@H](NC(=O)C2(S(=O)(=O)c3ccccc3)CCCNC2)C(=O)O)cc1 (stereo not given in full)		0.09	clearance [3]: 46 mL/min/kg; half-life [4]: 30 min; IC50 [5]: 168 nM; bioavailability [6]: 1%
COc1ccccc1-c1ccc(C[C@H](NC(=O)C2(S(=O)(=O)c3ccccc3)CCCC2)C(=O)O)cc1	83	0.33	
O=C(Nc1ccc(C[C@H](NC(=O)C2(S(=O)(=O)c3ccccc3)CCCNC2)C(=O)O)cc1)c1c(Cl)cccc1Cl (stereo not given in full)		0.19	clearance [3]: 78 mL/min/kg; half-life [4]: 18 min; IC50 [5]: 22 nM; bioavailability [6]: 0%
COc1ccccc1-c1ccc(C[C@H](NC(=O)C2(S(=O)(=O)c3ccccc3C)CCCCC2)C(=O)O)cc1	149	2.7	
O=C(O)[C@H](Cc1ccc(-c2ccccc2)cc1)NC(=O)C1(S(=O)(=O)C2CCCCC2)CCCC1		7	inhibition [7]: 16%
O=C(O)[C@H](Cc1ccc(-c2ccccc2)cc1)NC(=O)C1(S(=O)(=O)C2CCCCC2)CCCCC1		14	inhibition [7]: 24%
O=C(Nc1ccc(C[C@H](NC(=O)C2(S(=O)(=O)c3ccccc3)CCOCC2)C(=O)O)cc1)c1c(Cl)cccc1Cl		0.22	clearance [3]: 48 mL/min/kg; half-life [4]: 36 min; IC50 [5]: 20 nM; bioavailability [6]: 1%
COc1ccccc1-c1ccc(C[C@H](NC(=O)C2(S(=O)(=O)c3cccc(C)c3)CCCCC2)C(=O)O)cc1	77	1	
O=C(O)[C@H](Cc1ccc(-c2ccccc2)cc1)NC(=O)C1(S(=O)(=O)c2ccccc2)CC=CC1		275	inhibition [8]: 7%
COc1ccccc1-c1ccc(C[C@H](NC(=O)C2(S(=O)(=O)c3ccc(C)cc3)CCCCC2)C(=O)O)cc1	91	1.5	
COc1ccccc1-c1ccc(C[C@H](NC(=O)C2(S(=O)(=O)c3nccn3C)CCCC2)C(=O)O)cc1	4	0.21	
O=C(O)[C@H](Cc1ccc(-c2ccccc2)cc1)NC(=O)C1(S(=O)(=O)c2ccc(Br)cc2)CCCCC1		44	inhibition [7]: 19%
Cc1ccc(S(=O)(=O)C2(C(=O)N[C@@H](Cc3ccc(-c4ccccc4)cc3)C(=O)O)CCCC2)cc1		28	inhibition [7]: 2%
COc1ccccc1-c1ccc(C[C@H](NC(=O)C2(S(=O)(=O)c3ccc(F)cc3)CCCCC2)C(=O)O)cc1	25	0.75	
COc1ccccc1-c1ccc(C[C@H](NC(=O)C2(S(=O)(=O)c3ccc(Cl)cc3)CCCCC2)C(=O)O)cc1	53	1.1	
O=C(O)[C@H](Cc1ccc(-c2ccccc2)cc1)NC(=O)C1(S(=O)(=O)Cc2ccccc2)CCCC1		81	inhibition [7]: -7%
COc1cccc(OC)c1-c1ccc(C[C@H](NC(=O)C2(S(=O)(=O)c3ccccc3)CCOCC2)C(=O)O)cc1		0.16	clearance [3]: 133 mL/min/kg; half-life [4]: 48 min; IC50 [5]: 38 nM; bioavailability [6]: 3%
